Test results published in patent US6958345B2, “2-hydroxymethylcyclopropylidene methylpurines and -pyrimidines as antiviral agents” (The Regents of the University of Michigan, priority 1997, dated 2005).
Read-outs that look alike come from different tables or passages of the source.

What was measured:
HFF cells = test: Cytotoxicity in stationary HFF cells, microscopic inspection; type: cell-based, human
Protocol: (§1) Cells and viruses. The routine growth and passage of KB cells was performed in monolayer cultures using minimal essential medium (MEM) with either Hanks salts [MEM(H)] or Earle salts [MEM(E)] supplemented with 10% calf serum. The sodium bicarbonate concentration was varied to meet the buffering capacity required. Cultures of diploid human foreskin fibroblasts (HFF) or MRC-5 cells were grown in medium consisting of MEM(E) with 10% fetal bovine serum. Cells were passaged at 1:2 to 1:10 dilutions according to conventional procedures by using 0.05% trypsin plus 0.02% EDTA in a HEPES buffered salt solution (HBS) (Shipman, C., Jr., Proc. Soc. Exp. Biol. 130:305-310 (1969)) as described previously. Turk, S. R., et al., Antimicrob. Agents Chemother. 31:544-550 (1987). HFF and MRC-5 cells were passaged only at 1:2 dilutions. CEM cells were maintained in suspension culture as detailed previously. Kucera, L. S., et al., AIDS Res. Human Retroviruses 9:307-314 (1993).
(§2) Cytotoxicity assays. Two different assays were used to explore cytotoxicity of selected compounds as we have detailed previously. (i) Cytotoxicity produced in stationary HFF cells and in growing CEM cells was determined by microscopic inspection of cells used in plaque and RT assays which were not affected by the virus. Turk, S. R., et al., Antimicrob. Agents Chemother. 31:544-550 (1987). (ii) The effect of compounds during two population doublings of KB cells was determined by crystal violet staining and spectrophotometric quantitation of dye eluted from stained cells. Prichard, M. N., et al., Antimicrob. Agents Chemother. 35:1060-1065 (1991).
(§3) Data Analysis. Dose-response relationships were constructed by linearly regressing the percent inhibition of parameters derived in the preceding sections against log drug concentrations. Fifty-percent inhibitory (IC50) concentrations were calculated from the regression lines. Samples containing positive controls (acyclovir for HSV-1, ganciclovir for HCMV, and 2-acetylpyridine thiosemicarbazone for cytotoxicity) were used in all assays.

KB cells = test: Cytotoxicity in KB cells, growth over two population doublings; type: cell-based
Protocol: as §1, §2, §3

HCMV = HCMV plaque reduction assay in HFF cells; type: cell-based, Human CMV (HCMV); details: for IC50: HFF cells, plaque reduction; for activity against HCMV (in words): racemic analogues
Protocol: as §1
(§4) Virological procedures. Stock HCMV was prepared by infecting HFF cells at a multiplicity of infection (m.o.i.) of <0.01 plaque-forming units (p.f.u.) per cell. Cell growth medium was changed every four days until cytopathology was evident in all cells (approximately 21 days). Supernatant fluids were retained as the virus stock. High titer HSV-1 stocks were prepared by infecting KB cells at an m.o.i. of <0.1 as detailed previously. Turk, S. R., et al., Antimicrob. Agents Chemother. 31:544-550 (1987). Virus titers were determined using monolayer cultures of HFF cells for HCMV and monolayer cultures of BSC-1 cells for HSV-1 as described earlier. Prichard, M. N., et al., J. Virol. Methods 28:101-106 (1990). Briefly, HFF or BSC-1 cells were planted as described above in 96-well cluster dishes and incubated overnight at 37° C. in a humidified 3% CO297% air atmosphere. The next day cultures were inoculated with HCMV or HSV-1 and serially diluted 1:3 across the remaining eleven columns of the 96-well plate. Cultures were incubated at 37° C. for 2 hr to permit virus adsorption and then virus inoculum was replaced with 0.2 mL of fresh medium. Cultures were incubated for seven days for HCMV, two or three days for HSV-1, medium was removed, and the cell sheets were stained with 0.1% crystal violet in 20% methanol. Plaques were enumerated under 20-fold magnification in wells having the dilution which gave 5 to 20 plaques per well. Virus titers were calculated according to the following Formula: Titer (p.f.u./mL)=number of plaques×5×3^n; where n represents the nth dilution of the virus used to infect the well in which plaques were enumerated.
(a) HCMV. The effect of compounds on the replication of HCMV has been measured using a plaque reduction assay. HFF cells in 24-well cluster dishes were infected with approximately 100 p.f.u. of HCMV per cm^2 cell sheet using the procedures detailed above. Following virus adsorption, compounds dissolved in growth medium were added to duplicate wells in three to six selected concentrations. Following incubation at 37° C. for 7 to 10 days, cell sheets were fixed, stained with crystal violet and microscopic plaques enumerated as described above. Drug effects were calculated as a percentage of reduction in number of plaques in the presence of each drug concentration compared to the number observed in the absence of drug. Ganciclovir (DHPG) was used as a positive control in all experiments.
as §3

HIV-1 = HIV-1 reverse transcriptase assay in infected CEM cells; type: cell-based, strain IIIB of HIV-1
Protocol: (d) HIV-1. Reverse transcriptase (RT) was employed as a marker for HIV-1. This assay measured the presence of HIV in supernatants of CEM cells infected with strain IIIB of HIV-1 by the amount of RT activity. Cells were grown, infected, and incubated in the presence of seven concentrations (one-half log10 dilutions) beginning at 1 or 100 μM of compounds to be assayed. Procedures and the RT assay were performed as detailed previously. Kucera, L. S., et al., AIDS Res. Human Retroviruses 9:307-314 (1993); White, E. L., et al., Antiviral Res. 16:257-266 (1991).

HSV-1 = HSV-1 ELISA in BSC-1 cells; type: cell-based, herpes simplex 1 (HSV-1); details: for IC50: ELISA
Protocol: as §4
(b) HSV-1. An enzyme-linked immunosorbent assay (ELISA) was employed to detect HSV-1. 96-well cluster dishes were planted with BSC-1 cells at 10,000 cells per well, in a total volume of 200 μL per well of MEM(E) plus 10% calf serum. After overnight incubation at 37° C., drug and HSV-1 was added at the rate of 100 PFU/well. ELISA plates were blocked with 200 μL per well of 10% calf serum and 0.05% tween in HBS. After incubation for 30 minutes, the blocking agent was rinsed two times with HBS-T. A 1:400 dilution of AP conjugated rabbit anti-HSV-1 antibody in HBS-F was added. Plates were sealed with adhesive sheet, and incubated on rocker for one hour at 37° C. Plates were developed in the dark with 100 μL per well of substrate solution containing p-nitrophenyl phosphate. Plates were read at […]. Drug effects were calculated as a percentage of the reduction in virus in the presence of each drug concentration compared to the titer obtained in the absence of drug. Acyclovir was used as a positive control in all experiments.
as §3

CEM cells = test: Cytotoxicity in growing CEM cells, microscopic inspection; type: cell-based
Protocol: as §1, §2, §3

[1] = Example 26, high multiplicity of infection (moi), read-out: HIV-1 IC50, reverse transcriptase assay
[2] = Example 26, listed as R-1 (B = 2-amino-6-methoxy-purine), Example 22
[3] = KB cell growth, read-out: Cytotoxicity IC50 KB (growth)
[4] = reverse transcriptase assay, CEM cells, low moi (footnote c of the 5th table), read-out: HIV-1, IC50
[5] = Example 26, listed as S-1 (B = 2-amino-6-methoxy-purine), Example 22

Compound | IC50 (HFF cells) [µM] | IC50 (KB cells) [µM] | IC50 (HCMV; Example 26) [µM] | IC50 (HIV-1; [1]) [µM] | IC50 (HSV-1; Example 26) [µM] | IC50 (CEM cells) [µM] | also measured
Nc1nc(N)c2ncn(C=C3CC3CO)c2n1 (stereo not shown) [S-1 (B = 2,6-diaminopurine), Example 22] | 21 | > 100 | 21 | > 100 | > 100 | > 100 | –
Nc1nc(Cl)c2ncn(C=C3CC3CO)c2n1 (stereo not shown) [S-1 (B = 2-amino-6-chloropurine), Example 22] | > 100 | > 100 | 1.8 | > 100 | 45 | > 100 | –
Nc1nc(Cl)c2ncn(C=C3CC3CO)c2n1 (stereo not shown) [R-1 (B = 2-amino-6-chloropurine), Example 22] | 32 | > 100 | 30 | > 100 | > 100 | > 100 | –
Nc1ncnc2c1ncn2/C=C1/C[C@H]1CO [R-1 (B = adenine), Example 23, (R)-(−)-Synadenol] | > 100 | > 100 | 2.9 | 7 | 38 | > 100 | –
[N-]=[N+]=Nc1nc(N)nc2c1ncn2C=C1CC1CO (stereo not drawn) [syn-2-Amino-6-azido-N^9-(2-hydroxymethyl-cyclopropylidene-methyl)purine] | > 100 | > 100 | 41 | > 100 | > 100 | > 100 | activity against HCMV (in words) (HCMV; Example 26): good activity
COc1nc(N)nc2c1ncn2C=C1CC1CO (stereo not shown) [listing 1 of 2 here] | > 100 | > 100 | – | – | – | > 100 | IC50 (HCMV; [2]): > 100 µM; IC50 (HIV-1; Example 26, high multiplicity of infection (moi), listed as R-1 (B = 2-amino-6-methoxy-purine), Example 22, read-out: HIV-1 IC50, reverse transcriptase assay): > 100 µM; IC50 (HSV-1; [2]): > 100 µM
Nc1nc(NC2CC2)c2ncn(C=C3CC3CO)c2n1 (stereo not shown) [R-1 (B = 2-aminopurine-6-cyclo-propylaminopurine), Example 2] | > 100 | > 100 | > 100 | > 100 | > 100 | > 100 | –
COC(=O)[C@H](C)NP(=O)(OCC1CC1=Cn1cnc2c(N)nc(N)nc21)Oc1ccccc1 (stereo partly drawn) [3 (B = 2,6-diaminopurine), Example 15, Methyl Phenylphosphoro-L-alaninate of syn-2,6-diamino-N^9-(2-Hydroxycyclopropylidene-methyl)purine] | – | – | – | – | – | – | IC50 (HFF cells; stationary HFF cells, visual, read-out: Cytotoxicity IC50 HFF (visual)): > 100 µM; IC50 (KB cells; [3]): 40 µM; IC50 (HCMV): 4 µM; IC50 (HIV-1; [4]): 0.26 µM; IC50 (HSV-1; BSC-1 cells): 50 µM
COC(=O)[C@H](C)NP(=O)(OCC1CC1=Cn1cnc2c(N)ncnc21)Oc1ccccc1 (stereo partly drawn) [4 (B = adenine), Example 14, Methyl Phenylphosphoro-L-alaninate of anti-N^9-(2-Hydroxymethylcyclopropylidenemethyl)adenine] | – | – | – | – | – | – | IC50 (KB cells; [3]): 50 µM; IC50 (HCMV): 21 µM; IC50 (HIV-1; [4]): 1.6 µM; IC50 (HSV-1; BSC-1 cells): 65 µM; IC50 (CEM cells; growing CEM cells, visual, read-out: Cytotoxicity IC50 CEM (visual)): 66 µM
COc1nc(N)nc2c1ncn2C=C1CC1CO (stereo not shown) [listing 2 of 2 here] | – | – | – | – | – | – | IC50 (HCMV; [5]): 2.5 µM; IC50 (HIV-1; Example 26, high multiplicity of infection (moi), listed as S-1 (B = 2-amino-6-methoxy-purine), Example 22, read-out: HIV-1 IC50, reverse transcriptase assay): 42 µM; IC50 (HSV-1; [5]): 20 µM
Nc1nc2c(ncn2C=C2CC2CO)c(=O)[nH]1 (stereo not shown) [R-1 (B = guanine), Example 22] | > 100 | > 100 | > 100 | > 100 | > 100 | > 100 | –
COc1nc(N)nc2c1ncn2C=C1CC1CO (stereo not drawn) [syn-2-Amino-6-methoxy-N^9-(2-hydroxymethyl-cyclopropylidenemethyl)purine] | – | – | 3.1 | > 100 | 33 | – | activity against HCMV (in words) (HCMV; Example 26): good activity; activity against HSV-1 (in words) (HSV-1; Example 26): significant activity
Nc1nc(NC2CC2)c2ncn(C=C3CC3CO)c2n1 (stereo not shown) [S-1 (B = 2-aminopurine-6-cyclo-propylaminopurine), Example 2] | > 100 | > 100 | 1.8 | 65 | 20 | > 100 | –
Nc1nc2c(ncn2C=C2CC2CO)c(=O)[nH]1 (stereo not shown) [S-1 (B = guanine), Example 22] | > 100 | > 100 | 2.5 | > 100 | 45 | > 100 | –
Nc1nc(N)c2ncn(C=C3CC3CO)c2n1 (stereo not shown) [R-1 (B = 2,6-diaminopurine), Example 22] | > 100 | > 100 | > 100 | > 100 | > 100 | > 100 | –
Nc1ncnc2c1ncn2/C=C1/C[C@@H]1CO [S-1 (B = adenine), Example 24, (S)-(+)-Synadenol] | 100 | 80 | 2.4 | 1.2 | 8.8 | > 100 | –
